Results from article PMC10922394 (Journal of internal medicine, 2023).

Biological target: T1, rChAT (recombinant choline acetyltransferase) (Homo sapiens, UniProt P28329)
T1 sequence (P28329 119-748): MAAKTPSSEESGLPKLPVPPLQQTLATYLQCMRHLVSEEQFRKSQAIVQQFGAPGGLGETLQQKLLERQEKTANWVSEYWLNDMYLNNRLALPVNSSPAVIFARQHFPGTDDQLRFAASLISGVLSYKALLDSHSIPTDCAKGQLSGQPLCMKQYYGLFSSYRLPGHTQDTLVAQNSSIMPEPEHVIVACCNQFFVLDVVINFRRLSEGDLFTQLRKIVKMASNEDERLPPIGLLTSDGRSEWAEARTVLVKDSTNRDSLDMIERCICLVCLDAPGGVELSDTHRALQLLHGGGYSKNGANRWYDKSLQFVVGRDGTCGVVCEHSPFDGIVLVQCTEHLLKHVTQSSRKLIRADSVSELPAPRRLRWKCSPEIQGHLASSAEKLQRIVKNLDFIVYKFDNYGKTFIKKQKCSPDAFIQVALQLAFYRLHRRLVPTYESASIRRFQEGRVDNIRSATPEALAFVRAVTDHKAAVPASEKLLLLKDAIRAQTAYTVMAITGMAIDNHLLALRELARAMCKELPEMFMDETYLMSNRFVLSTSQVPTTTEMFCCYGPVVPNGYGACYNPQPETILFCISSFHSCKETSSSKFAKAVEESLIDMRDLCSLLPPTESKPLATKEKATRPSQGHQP
Test: colorimetric ChAT assay
Format: biochemical

IC50: 148 nM
SMILES: C[N+](C)(C)CCC(=O)c1cccc2ccccc12 [alpha-NETA]
